Laboratory results published in PubChem BioAssay (NCI).
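Method: 48-hour compound exposure of cells in 96-well plates, five concentrations, linear interpolation of endpoints. Here, GI50 denotes the concentration required for 50% inhibition of growth. TGI: total growth inhibition.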

Key:
Test in all cases: DTP human tumour cell line panel, 48 h
786-0 renal = system: 786-0 renal
MALME-3M melanoma = system: MALME-3M melanoma
UO-31 renal = system: UO-31 renal
IGROV1 ovarian = system: IGROV1 ovarian
SF-539 CNS = system: SF-539 CNS
NCI-H522 lung = system: NCI-H522 lung
OVCAR-4 ovarian = system: OVCAR-4 ovarian
MCF7 breast = system: MCF7 breast
U251 CNS = system: U251 CNS
HCT-15 colon = system: HCT-15 colon
OVCAR-5 ovarian = system: OVCAR-5 ovarian
SK-MEL-5 melanoma = system: SK-MEL-5 melanoma
NCI-H226 lung = system: NCI-H226 lung
UACC-257 melanoma = system: UACC-257 melanoma
MDA-MB-435 = system: MDA-MB-435
SF-268 CNS = system: SF-268 CNS
COLO 205 colon = system: COLO 205 colon
T-47D breast = system: T-47D breast
HL-60(TB) leukemia = system: HL-60(TB) leukemia
OVCAR-3 ovarian = system: OVCAR-3 ovarian
SNB-19 CNS = system: SNB-19 CNS
HCC-2998 colon = system: HCC-2998 colon
EKVX NSCLC = system: EKVX NSCLC
UACC-62 melanoma = system: UACC-62 melanoma
MOLT-4 leukemia = system: MOLT-4 leukemia
SK-OV-3 ovarian = system: SK-OV-3 ovarian
MDA-MB-231 breast = system: MDA-MB-231 breast
SW-620 colon = system: SW-620 colon
SN12C renal = system: SN12C renal
KM12 colon = system: KM12 colon
SK-MEL-28 melanoma = system: SK-MEL-28 melanoma
HOP-92 NSCLC = system: HOP-92 NSCLC
PC-3 prostate = system: PC-3 prostate
A498 renal = system: A498 renal
TK-10 renal = system: TK-10 renal
HCT-116 colon = system: HCT-116 colon
SNB-75 CNS = system: SNB-75 CNS
OVCAR-8 ovarian = system: OVCAR-8 ovarian
CAKI-1 renal = system: CAKI-1 renal
CCRF-CEM leukemia = system: CCRF-CEM leukemia
NCI-H460 lung = system: NCI-H460 lung
HT29 colon = system: HT29 colon
SK-MEL-2 melanoma = system: SK-MEL-2 melanoma
ACHN renal = system: ACHN renal
SF-295 CNS = system: SF-295 CNS
BT-549 breast = system: BT-549 breast
DU-145 prostate = system: DU-145 prostate
HS 578T breast = system: HS 578T breast
HOP-62 NSCLC = system: HOP-62 NSCLC
A549 NSCLC = system: A549 NSCLC
RXF 393 renal = system: RXF 393 renal
LOX IMVI melanoma = system: LOX IMVI melanoma
NCI/ADR-RES ovarian = system: NCI/ADR-RES ovarian
NCI-H23 lung = system: NCI-H23 lung
K-562 leukemia = system: K-562 leukemia
M14 melanoma = system: M14 melanoma
RPMI-8226 leukemia = system: RPMI-8226 leukemia

## Nc1ncnc2c1ncn2Cc1ccc(C23CC4CC(CC(C4)C2)C3)c(O)c1
786-0 renal
  GI50: 25.6 µM
  TGI: > 100 µM
MALME-3M melanoma
  GI50: 12.6 µM
  TGI: > 100 µM
UO-31 renal
  GI50: 90 µM
  TGI: > 100 µM
IGROV1 ovarian
  GI50: 27.2 µM
  TGI: > 100 µM
SF-539 CNS
  GI50: 23.4 µM
  TGI: 75.1 µM
NCI-H522 lung
  GI50: 25.6 µM
  TGI: > 100 µM
OVCAR-4 ovarian
  GI50: 2.71 µM
  TGI: 8.66 µM
MCF7 breast
  GI50: 17.4 µM
  TGI: > 100 µM
U251 CNS
  GI50: 14.8 µM
  TGI: 32.6 µM
HCT-15 colon
  GI50: 58.6 µM
  TGI: > 100 µM
OVCAR-5 ovarian
  GI50: > 100 µM
  TGI: > 100 µM
SK-MEL-5 melanoma
  GI50: 4.02 µM
  TGI: 88.2 µM
NCI-H226 lung
  GI50: > 100 µM
  TGI: > 100 µM
UACC-257 melanoma
  GI50: 3.39 µM
  TGI: 61.2 µM
MDA-MB-435
  GI50: 15 µM
  TGI: > 100 µM
SF-268 CNS
  GI50: 21.1 µM
  TGI: > 100 µM
COLO 205 colon
  GI50: 29.1 µM
  TGI: > 100 µM
T-47D breast
  GI50: 58.7 µM
  TGI: > 100 µM
HL-60(TB) leukemia
  GI50: 5.06 µM
  TGI: > 100 µM
OVCAR-3 ovarian
  GI50: 17.2 µM
  TGI: > 100 µM
SNB-19 CNS
  GI50: 30.3 µM
  TGI: > 100 µM
HCC-2998 colon
  GI50: 12.4 µM
  TGI: 82.1 µM
EKVX NSCLC
  GI50: 33.4 µM
  TGI: > 100 µM
UACC-62 melanoma
  GI50: 31.8 µM
  TGI: > 100 µM
MOLT-4 leukemia
  GI50: 6.72 µM
  TGI: > 100 µM
SK-OV-3 ovarian
  GI50: 36.3 µM
  TGI: > 100 µM
MDA-MB-231 breast
  GI50: 13.6 µM
  TGI: 63.1 µM
SW-620 colon
  GI50: 48.7 µM
  TGI: > 100 µM
SN12C renal
  GI50: 36.9 µM
  TGI: > 100 µM
KM12 colon
  GI50: 13.7 µM
  TGI: > 100 µM
SK-MEL-28 melanoma
  GI50: 18.9 µM
  TGI: > 100 µM
HOP-92 NSCLC
  GI50: 16.4 µM
  TGI: 37.5 µM
PC-3 prostate
  GI50: 8.36 µM
  TGI: 96.3 µM
A498 renal
  GI50: 15.8 µM
  TGI: 49.8 µM
TK-10 renal
  GI50: 7.24 µM
  TGI: 50.2 µM
HCT-116 colon
  GI50: 8.91 µM
  TGI: > 100 µM
SNB-75 CNS
  GI50: 13.4 µM
  TGI: 40 µM
OVCAR-8 ovarian
  GI50: 17.5 µM
  TGI: > 100 µM
CAKI-1 renal
  GI50: 8.14 µM
  TGI: 37.5 µM
CCRF-CEM leukemia
  GI50: 3.97 µM
  TGI: > 100 µM
NCI-H460 lung
  GI50: 11.8 µM
  TGI: > 100 µM
HT29 colon
  GI50: 15.1 µM
  TGI: > 100 µM
SK-MEL-2 melanoma
  GI50: > 100 µM
  TGI: > 100 µM
ACHN renal
  GI50: 15.6 µM
  TGI: > 100 µM
SF-295 CNS
  GI50: 18.3 µM
  TGI: > 100 µM
BT-549 breast
  GI50: 23.5 µM
  TGI: > 100 µM
DU-145 prostate
  GI50: 27.3 µM
  TGI: > 100 µM
HS 578T breast
  GI50: 10.7 µM
  TGI: 69.7 µM
HOP-62 NSCLC
  GI50: 9.06 µM
  TGI: 34.6 µM
A549 NSCLC
  GI50: 6.52 µM
  TGI: 77.4 µM
RXF 393 renal
  GI50: 8.06 µM
  TGI: 39.7 µM
LOX IMVI melanoma
  GI50: 24.6 µM
  TGI: > 100 µM
NCI/ADR-RES ovarian
  GI50: > 100 µM
  TGI: > 100 µM

## COc1ncnc2c(-c3ccco3)cn(COCc3ccccc3)c12
NCI-H23 lung
  GI50: > 50 µM
  TGI: > 50 µM
K-562 leukemia
  GI50: > 50 µM
  TGI: > 50 µM
786-0 renal
  GI50: 17.7 µM
  TGI: > 50 µM
MALME-3M melanoma
  GI50: > 50 µM
  TGI: > 50 µM
IGROV1 ovarian
  GI50: > 50 µM
  TGI: > 50 µM
SF-539 CNS
  GI50: > 50 µM
  TGI: > 50 µM
NCI-H522 lung
  GI50: 9.97 µM
  TGI: > 50 µM
OVCAR-4 ovarian
  GI50: > 50 µM
  TGI: > 50 µM
U251 CNS
  GI50: 10.6 µM
  TGI: > 50 µM
OVCAR-5 ovarian
  GI50: > 50 µM
  TGI: > 50 µM
SK-MEL-5 melanoma
  GI50: 1.28 µM
  TGI: > 50 µM
NCI-H226 lung
  GI50: > 50 µM
  TGI: > 50 µM
UACC-257 melanoma
  GI50: > 50 µM
  TGI: > 50 µM
MDA-MB-435
  GI50: > 50 µM
  TGI: > 50 µM
SF-268 CNS
  GI50: > 50 µM
  TGI: > 50 µM
M14 melanoma
  GI50: 22.5 µM
  TGI: > 50 µM
RPMI-8226 leukemia
  GI50: 4.87 µM
  TGI: > 50 µM
COLO 205 colon
  GI50: > 50 µM
  TGI: > 50 µM
T-47D breast
  GI50: 2.98 µM
  TGI: > 50 µM
HL-60(TB) leukemia
  GI50: > 50 µM
  TGI: > 50 µM
OVCAR-3 ovarian
  GI50: > 50 µM
  TGI: > 50 µM
SNB-19 CNS
  GI50: > 50 µM
  TGI: > 50 µM
HCC-2998 colon
  GI50: > 50 µM
  TGI: > 50 µM
EKVX NSCLC
  GI50: 11.5 µM
  TGI: > 50 µM
UACC-62 melanoma
  GI50: 8.2 µM
  TGI: > 50 µM
SK-OV-3 ovarian
  GI50: > 50 µM
  TGI: > 50 µM
MDA-MB-231 breast
  GI50: > 50 µM
  TGI: > 50 µM
SW-620 colon
  GI50: > 50 µM
  TGI: > 50 µM
SN12C renal
  GI50: > 50 µM
  TGI: > 50 µM
KM12 colon
  GI50: > 50 µM
  TGI: > 50 µM
SK-MEL-28 melanoma
  GI50: > 50 µM
  TGI: > 50 µM
PC-3 prostate
  GI50: 3.5 µM
  TGI: > 50 µM
A498 renal
  GI50: 0.697 µM
  TGI: > 50 µM
TK-10 renal
  GI50: 17.8 µM
  TGI: > 50 µM
HCT-116 colon
  GI50: 3.76 µM
  TGI: > 50 µM
SNB-75 CNS
  GI50: 12.7 µM
  TGI: > 50 µM
OVCAR-8 ovarian
  GI50: > 50 µM
  TGI: > 50 µM
CAKI-1 renal
  GI50: > 50 µM
  TGI: > 50 µM
CCRF-CEM leukemia
  GI50: > 50 µM
  TGI: > 50 µM
HT29 colon
  GI50: > 50 µM
  TGI: > 50 µM
SK-MEL-2 melanoma
  GI50: 48.8 µM
  TGI: > 50 µM
ACHN renal
  GI50: > 50 µM
  TGI: > 50 µM
SF-295 CNS
  GI50: > 50 µM
  TGI: > 50 µM
DU-145 prostate
  GI50: > 50 µM
  TGI: > 50 µM
HS 578T breast
  GI50: 18.6 µM
  TGI: > 50 µM
HOP-62 NSCLC
  GI50: > 50 µM
  TGI: > 50 µM
A549 NSCLC
  GI50: > 50 µM
  TGI: > 50 µM
RXF 393 renal
  GI50: > 50 µM
  TGI: > 50 µM
LOX IMVI melanoma
  GI50: > 50 µM
  TGI: > 50 µM
NCI/ADR-RES ovarian
  GI50: > 50 µM
  TGI: > 50 µM

## CC(C)(C)c1cc(C(=O)Nc2cc3ccccc3cc2C(=O)NCCN)cc(C(C)(C)C)c1
OVCAR-4 ovarian
  GI50: 1.24 µM
  TGI: 2.7 µM
SK-MEL-5 melanoma
  GI50: 1.65 µM
  TGI: 3.17 µM
UACC-257 melanoma
  GI50: 2.35 µM
  TGI: 4.98 µM
HOP-92 NSCLC
  GI50: 0.146 µM
  TGI: 0.396 µM
CAKI-1 renal
  GI50: 1.13 µM
  TGI: 2.44 µM
DU-145 prostate
  GI50: 0.374 µM
  TGI: 1.29 µM
HS 578T breast
  GI50: 1.65 µM
  TGI: 4.57 µM
